{
  "source": "patent US12351559B2",
  "about": "(Biohaven Therapeutics Ltd., priority 2014, dated 2025)",
  "data": [
    {"molecular_target": "T1, Kv7.2/7.3 (Homo sapiens, UniProt O43525+O43526)", "T1 construct": "host or cells: HEK cells, tetracycline-inducible expression", "test": "Kv7.2/7.3 activation assay, QPatch planar patch-clamp, single concentration screen", "type": "cell-based", "parameters": "key: <1.2-fold increase over baseline (−); +/−: as a range from <1.2-fold increase over baseline (−) up to >6-fold increase over baseline (+++); as a range from <1.2-fold increase over baseline (−) up to >6-fold increase over baseline (+++); as a range from <1.2-fold increase over baseline (−) up to >6-fold increase over baseline (+++); >6-fold increase over baseline (+++)", "details": "Kv7.2/Kv7.3 co-expressing HEK cells, compound 3 μM, steady-state current at end of 2 s pulse to −30 mV", "protocol": "(§1) The ability of compounds to potentiate K-currents in Kv7.2/7.3 containing HEK cells was assessed using planar patch-clamp on the QPatch automated screening platform.\n(§2) Cell Line: The hKv7.2/7.3 cell line was obtained from Chantest (Cleveland, OH 44128) cat. #CT6147. These HEK cells will express the Kv7.2/7.3 ion channels when induced.\n(§3) Cell Culture: Cells were maintained in a media containing DMEM/F12; 50/50 (GIBCO cat. #11330), 10% Fetal Bovine Serum (FBS) (GIBCO cat. #26140), 100 units/mL Penicillin-Streptomycin (GIBCO cat. #15140), 0.005 mg/mL Blasticidin (INVIVOGEN cat. #ant-bl-1), 0.5 mg/mL Geneticin (GIBCO cat. #10131), 0.1 mg/ml Zeocin (GIBCO cat. #R25001). Cells used in the electrophysiology assay were maintained in a media without Blasticidin, Geneticin and Zeocin for 2 days and channel expression was induced by adding tetracycline (BIOLINE cat. #BIO-87030) at a final concentration of 1 mg/mL. Cells were grown in T-175 flask to ˜75% confluency. Currents were recorded 24 hours after channel induction.\n(§4) Compound Plates: Test compounds were prepared by performing serial dilutions on a Biomek NX^P (BECKMAN COULTER). Final dilutions were made in external recording solution with a final DMSO concentration of 0.1% DMSO. For single concentration screens each plate had 10 μM retigabine as a positive control and 0.1% DMSO as a negative control.\n(§5) Electrophysiology: On the day of the experiment cells were washed with Hank's Balanced Salt Solution (HBBS) (GIBCO cat. #14175) and harvested with Tryple (GIBCO cat. #12604). Cells were then centrifuged at 2000 rpm for 5 minutes and resuspended in CHO-S-SFM (GIBCO cat. #12052) at ˜3×10^6 cells/mL. Cells were stirred for 30 minutes before experiments were started. External recording solution contained (in mM): NaCl (145), KCl (4), CaCl2 (2), MgCl2 (1), HEPES (10) and Glucose (10); pH was adjusted to 7.4 with NaOH and the osmolarity was adjusted to 300-305 mOsM with sucrose if necessary. Internal solution contained (in mM): KCl (125), KF (10), EGTA (5), Na2ATP (5), MgCl2 (3.2), HEPES (5); pH was adjusted to 7.2 with KOH and the osmolarity was adjusted to 298-302 mOsM with sucrose.\n(§6) Potassium channel activity was measured on the QPatch HTX (Sophion Bioscience) using QPlates with 48-wells/plate. Each cell was taken as an independent experiment and only one compound was tested per well. Potassium channel activity was elicited by holding at −80 mV and stepping to −30 mV for 2 s followed by a 100 ms pulse to −120 mV.\n(§7) Single concentration screen: Baseline conditions were obtained by recording 5 sweeps in the external solution only, this was repeated for three applications of the external solution. […] The steady-state current at the end of the 2 s pulse to −30 mV was measured to determine the fold increase from baseline.", "values": [
      {"smiles": "CC(C)[C@@H](C)C(=O)Nc1nc2ccc(C#N)cc2n1C1CCC1", "note": "[Example 14, (R)-N-(6-cyano-1-cyclobutyl-1H-benzo[d]imidazol-2-yl)-2,3-dimethylbutanamide]", "Kv7.2/7.3 Activity: increase in current over baseline": "+/−"},
      {"smiles": "CC(C)(C)CC(=O)Nc1nc2ccc(CO)cc2n1C1CCC1", "note": "[Example 51, N-(1-cyclobutyl-6-(hydroxymethyl)-1H-benzo[d]imidazol-2-yl)-3,3-dimethylbutanamide]", "Kv7.2/7.3 Activity: increase in current over baseline": "+"},
      {"smiles": "CC(C)[C@H](C)C(=O)Nc1nc2ccc(C(F)(F)F)cc2n1C1CCC1", "note": "[Example 36, (S)-N-(1-cyclobutyl-6-(trifluoromethyl)-1H-benzo[d]imidazol-2-yl)-2,3-dimethylbutanamide]", "Kv7.2/7.3 Activity: increase in current over baseline": "+"},
      {"smiles": "CC(C)[C@H](C)C(=O)Nc1nc2ccc(Cl)cc2n1C1CCC1", "note": "[Example 59, (S)-N-(6-chloro-1-cyclobutyl-1H-benzo[d]imidazol-2-yl)-2,3-dimethylbutanamide]", "Kv7.2/7.3 Activity: increase in current over baseline": "+"},
      {"smiles": "CC(C)[C@@H](C)C(=O)Nc1nc2ccc(C(F)(F)F)cc2n1C1CCC1", "note": "[Example 40, (R)-N-(1-cyclobutyl-6-(trifluoromethyl)-1H-benzo[d]imidazol-2-yl)-2,3-dimethylbutanamide]", "Kv7.2/7.3 Activity: increase in current over baseline": "+"},
      {"smiles": "CC(C)(C)CC(=O)Nc1nc2ccc(CC(C)(C)O)c(F)c2n1-c1ccc(F)cc1", "note": "[Example 116, N-(7-fluoro-1-(4-fluorophenyl)-6-(2-hydroxy-2-methylpropyl)-1H-benzo[d]imidazol-2-yl)-3,3-dimethylbutanamide]", "Kv7.2/7.3 Activity: increase in current over baseline": "+"},
      {"smiles": "C[C@@](O)(CC(=O)Nc1nc2cc(C(F)(F)F)cc(F)c2n1C1CCC1)C(F)(F)F", "note": "[Example 132, (R)-N-(1-cyclobutyl-7-fluoro-5-(trifluoromethyl)-1H-benzo[d]imidazol-2-yl)-4,4,4-trifluoro-3-hydroxy-3-methylbutanamide]", "Kv7.2/7.3 Activity: increase in current over baseline": "+/−"},
      {"smiles": "C[C@](O)(CC(=O)Nc1nc2ccc(C#N)cc2n1C1CCC1)c1ccccn1", "note": "[Example 20, (S)-N-(6-cyano-1-cyclobutyl-1H-benzo[d]imidazol-2-yl)-3-hydroxy-3-(pyridin-2-yl)butanamide]", "Kv7.2/7.3 Activity: increase in current over baseline": "+"},
      {"smiles": "CC(C)(C)CC(=O)Nc1nc2ccc(Cl)cc2n1C1CCC1", "note": "[Example 60, N-(6-chloro-1-cyclobutyl-1H-benzo[d]imidazol-2-yl)-3,3-dimethylbutanamide]", "Kv7.2/7.3 Activity: increase in current over baseline": "+"},
      {"smiles": "CC(C)(O)c1ccc2nc(NC(=O)C3CC34CC4)n(-c3ccc(F)cc3)c2c1", "note": "(stereo not drawn) [Example 109, N-(1-(4-fluorophenyl)-6-(2-hydroxypropan-2-yl)-1H-benzo[d]imidazol-2-yl)spiro[2.2]pentane-1-carboxamide]", "Kv7.2/7.3 Activity: increase in current over baseline": "+"},
      {"smiles": "N#Cc1ccc2nc(NC(=O)CC3(O)CCCC3)n(C3CCC3)c2c1", "note": "[Example 81, N-(6-cyano-1-cyclobutyl-1H-benzo[d]imidazol-2-yl)-2-(1-hydroxycyclopentyl)acetamide]", "Kv7.2/7.3 Activity: increase in current over baseline": "+"},
      {"smiles": "CC(C)(O)CC(=O)Nc1nc2ccc(C#N)cc2n1C1CCC1", "note": "[Example 8, N-(6-cyano-1-cyclobutyl-1H-benzo[d]imidazol-2-yl)-3-hydroxy-3-methylbutanamide]", "Kv7.2/7.3 Activity: increase in current over baseline": "+"},
      {"smiles": "Cc1cc(-n2c(NC(=O)[C@@H](C)C(C)(C)C)nc3ccc(C(F)(F)F)cc32)on1", "note": "[Example 48, (S)-2,3,3-trimethyl-N-(1-(3-methylisoxazol-5-yl)-6-(trifluoromethyl)-1H-benzo[d]imidazol-2-yl)butanamide]", "Kv7.2/7.3 Activity: increase in current over baseline": "+++ (>6-fold increase over baseline (+++))"},
      {"smiles": "O=C(CC(O)(C1CC1)C1CC1)Nc1nc2ccc(C(F)(F)F)cc2n1C1CCC1", "note": "[Example 98, N-(1-cyclobutyl-6-(trifluoromethyl)-1H-benzo[d]imidazol-2-yl)-3,3-dicyclopropyl-3-hydroxypropanamide]", "Kv7.2/7.3 Activity: increase in current over baseline": "+"},
      {"smiles": "CC(C)(C)CC(=O)Nc1nc2ccc(C#N)cc2n1-c1ccc(F)cn1", "note": "[Example 74, N-(6-cyano-1-(5-fluoropyridin-2-yl)-1H-benzo[d]imidazol-2-yl)-3,3-dimethylbutanamide]", "Kv7.2/7.3 Activity: increase in current over baseline": "+"},
      {"smiles": "Cc1cc(-n2c(NC(=O)CC(C)(C)C)nc3ccc(C#N)cc32)on1", "note": "[Example 69, N-(6-cyano-1-(3-methylisoxazol-5-yl)-1H-benzo[d]imidazol-2-yl)-3,3-dimethylbutanamide]", "Kv7.2/7.3 Activity: increase in current over baseline": "+"},
      {"smiles": "O=C(CC1(O)CCC1)Nc1nc2ccc(C(F)(F)F)cc2n1C1CCC1", "note": "[Example 44, N-(1-cyclobutyl-6-(trifluoromethyl)-1H-benzo[d]imidazol-2-yl)-2-(1-hydroxycyclobutyl)acetamide]", "Kv7.2/7.3 Activity: increase in current over baseline": "+"},
      {"smiles": "CC(C)(C)CC(=O)Nc1nc2ccc(C(C)(C)O)cc2n1C1CCC1", "note": "[Example 53, N-(1-cyclobutyl-6-(2-hydroxypropan-2-yl)-1H-benzo[d]imidazol-2-yl)-3,3-dimethylbutanamide]", "Kv7.2/7.3 Activity: increase in current over baseline": "+"},
      {"smiles": "O=C(CC1(O)CCC1)Nc1nc2ccc(C(F)(F)F)cc2n1-c1ccc(OC(F)(F)F)c(F)c1", "note": "[Example 145, N-(1-(3-fluoro-4-(trifluoromethoxy)phenyl)-6-(trifluoromethyl)-1H-benzo[d]imidazol-2-yl)-2-(1-hydroxycyclobutyl)acetamide]", "Kv7.2/7.3 Activity: increase in current over baseline": "++"},
      {"smiles": "CC1(C)C[C@@H]1C(=O)Nc1nc2ccc(C#N)cc2n1C1CCC1", "note": "[Example 11, (S)-N-(6-cyano-1-cyclobutyl-1H-benzo[d]imidazol-2-yl)-2,2-dimethylcyclopropane-1-carboxamide]", "Kv7.2/7.3 Activity: increase in current over baseline": "++"},
      {"smiles": "CC1(C)CCC[C@@H](CC(=O)Nc2nc3ccc(C(C)(C)O)cc3n2C2CCC2)O1", "note": "[Example 83, (S)-N-(1-cyclobutyl-6-(2-hydroxypropan-2-yl)-1H-benzo[d]imidazol-2-yl)-2-(6,6-dimethyltetrahydro-2H-pyran-2-yl)acetamide]", "Kv7.2/7.3 Activity: increase in current over baseline": "++"},
      {"smiles": "CC(C)(C(=O)Nc1nc2ccc(C#N)cc2n1C1CCC1)C(O)c1ccccc1", "note": "(stereo not drawn) [Example 72, N-(6-cyano-1-cyclobutyl-1H-benzo[d]imidazol-2-yl)-3-hydroxy-2,2-dimethyl-3-phenylpropanamide]", "Kv7.2/7.3 Activity: increase in current over baseline": "+/−"},
      {"smiles": "CC1(C)C[C@@H]1C(=O)Nc1nc2ccc(Cl)cc2n1C1CCC1", "note": "[Example 58, (S)-N-(6-chloro-1-cyclobutyl-1H-benzo[d]imidazol-2-yl)-2,2-dimethylcyclopropane-1-carboxamide]", "Kv7.2/7.3 Activity: increase in current over baseline": "+"},
      {"smiles": "CC(C)(C)CC(=O)Nc1nc2ccc(C(F)F)cc2n1C1CCC1", "note": "[Example 66, N-(1-cyclobutyl-6-(difluoromethyl)-1H-benzo[d]imidazol-2-yl)-3,3-dimethylbutanamide]", "Kv7.2/7.3 Activity: increase in current over baseline": "++"},
      {"smiles": "Cc1cc2nc(NC(=O)C[C@@](C)(O)c3ccccc3)n(C3CCC3)c2cc1C#N", "note": "[Example 124, (R)-N-(6-cyano-1-cyclobutyl-5-methyl-1H-benzo[d]imidazol-2-yl)-3-hydroxy-3-phenylbutanamide]", "Kv7.2/7.3 Activity: increase in current over baseline": "+/−"},
      {"smiles": "CC(C)(O)c1ccc2nc(NC(=O)CC(O)(C3CC3)C3CC3)n(C3CCC3)c2c1", "note": "[Example 97, N-(1-cyclobutyl-6-(2-hydroxypropan-2-yl)-1H-benzo[d]imidazol-2-yl)-3,3-dicyclopropyl-3-hydroxypropanamide]", "Kv7.2/7.3 Activity: increase in current over baseline": "+/−"}
    ]},
    {"molecular_target": "T1, Kv7.2/7.3", "test": "Kv7.2/7.3 activation assay, QPatch planar patch-clamp, single concentration screen", "type": "cell-based", "parameters": "key: <1.2-fold increase over baseline (−); +/−: as a range from <1.2-fold increase over baseline (−) up to >6-fold increase over baseline (+++); as a range from <1.2-fold increase over baseline (−) up to >6-fold increase over baseline (+++); as a range from <1.2-fold increase over baseline (−) up to >6-fold increase over baseline (+++); >6-fold increase over baseline (+++)", "details": "Kv7.2/Kv7.3 co-expressing HEK cells, compound @ 1 μM", "protocol": "as §1, §2, §3, §4, §5, §6, §7", "values": [
      {"smiles": "CC(C)(C)CC(=O)Nc1nc2ccc(C(C)(C)O)cc2n1-c1ccc(F)cc1", "note": "[Example 104, N-(1-(4-fluorophenyl)-6-(2-hydroxypropan-2-yl)-1H-benzo[d]imidazol-2-yl)-3,3-dimethylbutanamide]", "Kv7.2/7.3 Activity: increase in current over baseline": "+(@ 1 μM)"}
    ]}
  ]
}
